Experimental data as given in patent US8653261B2, “Modified actinomycin-based nucleic acid stains and methods of their use” (priority 2008, dated 2014).

Legend:
dead cells = settings: dead cell identification; cited from earlier work
fixed cells = settings: cited from earlier work
HeLa cells = assay: High content imaging of stained HeLa cells with valinomycin treatment; type: cell-based; settings: for killing of HeLa cells: 24 hours
Method: HeLa cells were either untreated or treated with two concentrations (15 μM and 120 μM) of valinomycin (VLM) as a killing agent for 24 hours before labeling with Compound 7 and with the nuclear counterstain Hoechst 33342 dye (Invitrogen Corporation, Carlsbad, Calif.). At 24 hours of treatment, normal cell growth medium containing 2× final concentration of Hoechst 33342 and Compound 7 was added to the existing medium to result in 1× final concentration. Cells were incubated for 30 minutes at 37° C. and then the drug/dye mixture was replaced with PBS for imaging using a high content automated imaging system (ArrayScan VTI from Thermo/Fisher) using a Texas Red filter set.

Jurkat T cells = assay: Imaging flow cytometry of stained Jurkat cells with camptothecin treatment; type: cell-based; settings: 1 μM camptothecin, 4 hours
Method: Jurkat T cells were incubated in the presence or absence of 1 μM camptothecin (CPT) for 4 hours to induce apoptosis, then stained with 2.5 μM Compound 7 for 15 minutes at room temperature and analyzed on an AMNIS ImageStream multispectral imaging flow cytometer. Gating on 10,000 collected events with intermediate brightfield (BF) area and high BF aspect ratio (width:height) was performed to distinguish single cells from debris and multi-cellular clumps. Cells with nuclear dye uptake were gated (R3) on the Intensity 180 plot. Cells untreated with camptothecin are shown in the top middle histogram of FIG. 3, with 8.0% stain positive (dead cells) as identified in the R3 gate. The positively stained cells show typical brightfield morphology of dead cells, while the cells negative (live cells) show typical brightfield morphology of live cells.
Cells treated with the apoptotic inducing agent camptothecin (FIG. 3B) (bottom middle histogram), with 68.4% stain positive as identified in the R3 gate. The positively stained cells show typical brightfield morphology of dead cells and stained nuclei typical of apoptosis and cell death that is condensed and fragmented, while the cells negative for staining (live cells) show typical brightfield morphology of live cells. […] Cells negative for stain show morphology typical of healthy cells.

## Cc1c2oc3c(C)c(N)cc(C(=O)N[C@@H]4C(=O)N[C@H](C(C)C)C(=O)N5CCC[C@H]5C(=O)N(C)CC(=O)N(C)[C@@H](C(C)C)C(=O)O[C@@H]4C)c3nc-2c(C(=O)N[C@@H]2C(=O)N[C@H](C(C)C)C(=O)N3CCC[C@H]3C(=O)N(C)CC(=O)N(C)[C@@H](C(C)C)C(=O)O[C@@H]2C)c(N)c1=O [Compound 7-AAD, 7-aminoactinomycin D]
Dead cells
  time of staining process to fully equilibrate: about 30 minutes
Fixed cells
  variability of DNA content cell cycle histogram (% CV of the G0G1 peak): high degree of variability

## CCOc1ccc(-c2nc3ccc(-c4nc5ccc(N6CCN(C)CC6)cc5[nH]4)cc3[nH]2)cc1 [Hoechst 33342]
HeLa cells; untreated or valinomycin-treated cells
  nuclear counterstain labeling of HeLa cells: labeling both live and dead cells

## CC[C@@]1(O)C(=O)OCc2c1cc1n(c2=O)Cc2cc3ccccc3nc2-1 [camptothecin]
Jurkat T cells
  cell death measurable by staining with Compound 7: induced significant cell death

## CC(C)[C@@H]1NC(=O)[C@H](C)OC(=O)[C@@H](C(C)C)NC(=O)[C@@H](C(C)C)OC(=O)[C@H](C(C)C)NC(=O)[C@H](C)OC(=O)[C@@H](C(C)C)NC(=O)[C@@H](C(C)C)OC(=O)[C@H](C(C)C)NC(=O)[C@H](C)OC(=O)[C@@H](C(C)C)NC(=O)[C@@H](C(C)C)OC1=O [valinomycin]
HeLa cells; 15 μM valinomycin
  killing of HeLa cells: less effective in killing HeLa cells
HeLa cells; 120 μM valinomycin
  killing of HeLa cells: effective in killing HeLa cell
